The test system of experiment [1] is PC3 (prostate cancer) cells. The experiment is described as follows: SRB cytotoxicity assay, PC3. It is filed as cell-based. To be noted: Homo sapiens, 48 h, read-out: Cytotoxicity IC50, PC3. On the technique in general: In SRB staining, fixed cells bind dye roughly in proportion to their protein.
Experiment [2] has as its system NCI-H23 (lung cancer) cells. The experiment is described as follows: SRB cytotoxicity assay, NCI-H23. The class given is cell-based. As to conditions: Homo sapiens, NCI-H23, 48 h, read-out: Cytotoxicity IC50, NCI-H23.
Experiment [3] deals with T1, HDAC6 (Homo sapiens, UniProt Q9UBN7).
T1 sequence (Q9UBN7 1-1215): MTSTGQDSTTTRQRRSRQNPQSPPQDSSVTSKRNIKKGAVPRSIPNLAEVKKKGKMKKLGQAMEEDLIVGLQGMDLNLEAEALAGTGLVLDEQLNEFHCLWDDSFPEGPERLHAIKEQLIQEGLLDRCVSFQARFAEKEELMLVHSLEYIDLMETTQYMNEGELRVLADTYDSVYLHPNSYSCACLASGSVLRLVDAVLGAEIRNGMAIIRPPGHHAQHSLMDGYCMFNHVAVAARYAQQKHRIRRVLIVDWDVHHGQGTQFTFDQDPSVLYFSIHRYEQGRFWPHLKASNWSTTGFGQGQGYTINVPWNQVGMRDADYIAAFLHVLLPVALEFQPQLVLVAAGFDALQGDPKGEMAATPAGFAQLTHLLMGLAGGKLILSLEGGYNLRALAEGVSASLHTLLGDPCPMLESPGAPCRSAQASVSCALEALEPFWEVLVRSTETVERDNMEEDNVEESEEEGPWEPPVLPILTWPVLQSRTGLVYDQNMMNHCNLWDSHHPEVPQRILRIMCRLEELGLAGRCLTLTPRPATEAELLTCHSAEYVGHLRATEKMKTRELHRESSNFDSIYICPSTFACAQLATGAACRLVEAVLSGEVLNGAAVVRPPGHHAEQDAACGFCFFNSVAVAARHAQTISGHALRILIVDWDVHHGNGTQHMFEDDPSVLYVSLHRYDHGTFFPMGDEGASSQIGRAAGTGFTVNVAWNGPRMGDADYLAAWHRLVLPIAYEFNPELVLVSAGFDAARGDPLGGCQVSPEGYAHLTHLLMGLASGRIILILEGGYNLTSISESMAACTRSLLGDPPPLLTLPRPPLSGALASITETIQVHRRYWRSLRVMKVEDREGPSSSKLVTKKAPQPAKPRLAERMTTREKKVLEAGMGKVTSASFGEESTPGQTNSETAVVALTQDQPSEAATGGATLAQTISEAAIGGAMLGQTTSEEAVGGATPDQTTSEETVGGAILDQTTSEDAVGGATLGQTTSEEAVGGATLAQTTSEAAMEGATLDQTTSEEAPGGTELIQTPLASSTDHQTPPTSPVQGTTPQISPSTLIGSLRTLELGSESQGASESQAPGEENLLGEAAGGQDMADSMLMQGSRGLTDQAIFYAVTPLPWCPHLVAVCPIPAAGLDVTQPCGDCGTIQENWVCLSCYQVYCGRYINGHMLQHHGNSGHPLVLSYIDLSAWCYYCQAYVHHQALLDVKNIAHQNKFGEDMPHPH
Briefly: HDAC6 enzyme assay. It is filed as biochemical.

For experiment [4], the system named is HDAC (Hela cell nuclear extract). It is filed as biochemical. To be noted: Hela cell nuclear extract.
Experiment [5] has as its system SW620, PC3 and NCI-H23 cancer cell lines. Briefly: SRB cytotoxicity, range over three human cancer cell lines. The class given is cell-based. As to conditions: read-out: Cytotoxicity IC50 values (range over cell lines).
The subject of experiment [6] is SW620 (colon cancer) cells. Briefly: SRB cytotoxicity assay, SW620. It is filed as cell-based. To be noted: Homo sapiens, SW-620, 48 h, read-out: Cytotoxicity IC50, SW620.

The structures appear in SMILES notation.

Usually IC50 stands for the concentration that gives 50% inhibition. For the molecule `CCCn1cnc2ccc(/C=C/C(=O)NO)cc2c1=O` [Compound 9d, (E)-N-Hydroxy-3-(4-oxo-3-propyl-3,4-dihydroquinazolin-6-yl)acrylamide], the results for the IC50 in experiment [1] and in experiment [2] were 2870 ± 224 nM and 1620 ± 74 nM, respectively.

As to `O=C(/C=C/c1ccc2c(=O)n(Cc3ccccc3F)cnc2c1)NO` [Compound 10i, (E)-3-(3-(2-Fluorobenzyl)-4-oxo-3,4-dihydroquinazolin-7-yl)-N-hydroxyacrylamide], the IC50 worked out at 1950 ± 66 nM in experiment [1], 2100 ± 132 nM in experiment [2] and 25 ± 1 nM in experiment [3].

For `CCn1cnc2ccc(/C=C/C(=O)NO)cc2c1=O` [Compound 9a, (E)-3-(3-Ethyl-4-oxo-3,4-dihydroquinazolin-6-yl)-N-hydroxyacrylamide], the “fold higher HDAC IC50 than that of SAHA” value in experiment [4] is “approximately 10 fold”. Moreover, the IC50 in experiment [2] was 5787 ± 3 nM; in experiment [5] it was 3200 to 7040 nM.

Consider `O=C(/C=C/c1ccc2ncn(CCO)c(=O)c2c1)NO` [Compound 9c, (E)-N-Hydroxy-3-(3-(2-hydroxyethyl)-4-oxo-3,4-dihydroquinazolin-6-yl)acrylamide], for which the IC50 in experiment [6] came out at 3670 ± 67 nM; in experiment [1], 4650 ± 171 nM; in experiment [2], 4309 ± 40 nM.

Consider `O=C(/C=C/c1ccc2ncn(Cc3ccc(Cl)cc3)c(=O)c2c1)NO` [Compound 9l, (E)-3-(3-(4-Chlorobenzyl)-4-oxo-3,4-dihydroquinazolin-6-yl)-N-hydroxyacrylamide], for which the IC50 amounted to 1370 ± 30 nM in experiment [1] and 1660 ± 28 nM in experiment [2].

On to `O=C(/C=C/c1ccc2c(=O)n(CCO)cnc2c1)NO` [Compound 10c, (E)-N-Hydroxy-3-(3-(2-hydroxyethyl)-4-oxo-3,4-dihydroquinazolin-7-yl)acrylamide], for which the values for the IC50 in experiment [1] and in experiment [3] were 5050 ± 399 nM and 96 ± 6 nM, respectively.

On to `O=C(/C=C/c1ccc2ncn(CC3CCCCC3)c(=O)c2c1)NO` [Compound 9g, (E)-3-(3-(Cyclohexylmethyl)-4-oxo-3,4-dihydroquinazolin-6-yl)-N-hydroxyacrylamide], for which the IC50 in experiment [1] is 997 ± 18 nM; in experiment [2], 1291 ± 3 nM.

In the case of `O=C(/C=C/c1ccc2c(=O)n(CCCl)cnc2c1)NO` [Compound 10b, (E)-3-(3-(2-Chloroethyl)-4-oxo-3,4-dihydroquinazolin-7-yl)-N-hydroxyacrylamide], the IC50 in experiment [1] amounted to 5550 ± 231 nM; in experiment [2], 7660 ± 691 nM; in experiment [3] it was 322 ± 13 nM.

Regarding `O=C(/C=C/c1ccc2c(=O)n(Cc3cccc(F)c3)cnc2c1)NO` [Compound 10j, (E)-3-(3-(3-Fluorobenzyl)-4-oxo-3,4-dihydroquinazolin-7-yl)-N-hydroxyacrylamide], the IC50 turned out to be 1396 ± 9 nM in experiment [1], 1914 ± 6 nM in experiment [2] and 23 nM in experiment [3].

In the case of `O=C(/C=C/c1ccc2c(=O)n(CC3CCCC3)cnc2c1)NO` [Compound 10f, (E)-3-(3-(Cyclopentylmethyl)-4-oxo-3,4-dihydroquinazolin-7-yl)-N-hydroxyacrylamide], the results for the IC50 in experiment [6], in experiment [2] and in experiment [3] were 3210 ± 83 nM, 3160 ± 213 nM and 22 nM, respectively.

As for `O=C(/C=C/c1cccc(S(=O)(=O)Nc2ccccc2)c1)NO` [Belinostat, belinostat, reference compound], the concentration for half-maximal inhibition (IC50) in experiment [1] is 2530 ± 170 nM.

As to `O=C(/C=C/c1ccc2ncn(CC3CCCC3)c(=O)c2c1)NO` [Compound 9f, (E)-3-(3-(Cyclopentylmethyl)-4-oxo-3,4-dihydroquinazolin-6-yl)-N-hydroxyacrylamide], the 50% inhibitory concentration (IC50) in experiment [1] was 1220 ± 100 nM; in experiment [2], 952 ± 29 nM.

For `O=C(/C=C/c1ccc2ncn(Cc3ccccc3F)c(=O)c2c1)NO` [Compound 9i, (E)-3-(3-(2-Fluorobenzyl)-4-oxo-3,4-dihydroquinazolin-6-yl)-N-hydroxyacrylamide], the concentration for half-maximal inhibition (IC50) is 659 ± 20 nM in experiment [2] and 639 to 1120 nM in experiment [5].

For the molecule `O=C(/C=C/c1ccc2ncn(Cc3ccc(F)cc3)c(=O)c2c1)NO` [Compound 9k, (E)-3-(3-(4-Fluorobenzyl)-4-oxo-3,4-dihydroquinazolin-6-yl)-N-hydroxyacrylamide], the IC50 in experiment [6] came to 1900 ± 55 nM; in experiment [1], 1040 ± 13 nM; in experiment [2] it was 1370 ± 72 nM.

As for `CCCCn1cnc2ccc(/C=C/C(=O)NO)cc2c1=O` [Compound 9e, (E)-3-(3-Butyl-4-oxo-3,4-dihydroquinazolin-6-yl)-N-hydroxyacrylamide], the concentration for half-maximal inhibition (IC50) in experiment [6] was 1960 ± 103 nM; in experiment [1] it was 1689 ± 14 nM; in experiment [2] it was 1450 ± 15 nM.

Consider `CCCn1cnc2cc(/C=C/C(=O)NO)ccc2c1=O` [Compound 10d, (E)-N-Hydroxy-3-(4-oxo-3-propyl-3,4-dihydroquinazolin-7-yl)acrylamide], for which the half-maximal inhibitory concentration (IC50) was determined as 1500 ± 135 nM in experiment [1], 1900 ± 53 nM in experiment [2] and 48 ± 2 nM in experiment [3].

With `O=C(/C=C/c1ccc2ncn(Cc3cccc(F)c3)c(=O)c2c1)NO` [Compound 9j, (E)-3-(3-(3-Fluorobenzyl)-4-oxo-3,4-dihydroquinazolin-6-yl)-N-hydroxyacrylamide], the half-maximal inhibitory concentration (IC50) in experiment [6] turned out to be 2060 ± 58 nM; in experiment [1] it was 1280 ± 13 nM; in experiment [2] it was 1669 ± 5 nM.

Take `CCCCn1cnc2cc(/C=C/C(=O)NO)ccc2c1=O` [Compound 10e, (E)-3-(3-Butyl-4-oxo-3,4-dihydroquinazolin-7-yl)-N-hydroxyacrylamide]: the half-inhibitory concentration (IC50) was found to be 3685 ± 27 nM in experiment [6], 2860 ± 94 nM in experiment [1], 2749 ± 16 nM in experiment [2] and 29 nM in experiment [3].

In the case of `O=C(/C=C/c1ccc2ncn(CCCl)c(=O)c2c1)NO` [Compound 9b, (E)-3-(3-(2-Chloroethyl)-4-oxo-3,4-dihydroquinazolin-6-yl)-N-hydroxyacrylamide], the “fold higher HDAC IC50 than that of SAHA” value in experiment [4] is listed as roughly 20 fold. The IC50 was 4040 ± 53 nM in experiment [6], 3970 ± 391 nM in experiment [1] and 3200 to 7040 nM in experiment [5].

Consider `CCn1cnc2cc(/C=C/C(=O)NO)ccc2c1=O` [Compound 10a, (E)-3-(3-Ethyl-4-oxo-3,4-dihydroquinazolin-7-yl)-N-hydroxyacrylamide], for which the results for the half-inhibitory concentration (IC50) in experiment [1], in experiment [2] and in experiment [3] were 1681 ± 8 nM, 2350 ± 56 nM and 80 nM, respectively.

Consider `O=C(/C=C/c1ccc2c(=O)n(CC3CCCCC3)cnc2c1)NO` [Compound 10g, (E)-3-(3-(Cyclohexylmethyl)-4-oxo-3,4-dihydroquinazolin-7-yl)-N-hydroxyacrylamide], for which the IC50 in experiment [1] came to 2540 ± 26 nM. Besides, the “fold lower HDAC6 IC50 than IC50 in Hela nuclear extract assay” value in experiment [3] (HDAC6 vs total HDAC extract) stood at 10 fold.

Regarding `O=C(/C=C/c1ccc2c(=O)n(Cc3ccc(F)cc3)cnc2c1)NO` [Compound 10k, (E)-3-(3-(4-Fluorobenzyl)-4-oxo-3,4-dihydroquinazolin-7-yl)-N-hydroxyacrylamide], the IC50 in experiment [1] amounted to 1490 ± 23 nM; in experiment [2] it was 1490 ± 18 nM; in experiment [3] it was 42 ± 1 nM.

As to `O=C(/C=C/c1ccc2c(=O)n(Cc3ccccc3)cnc2c1)NO` [Compound 10h, (E)-3-(3-Benzyl-4-oxo-3,4-dihydroquinazolin-7-yl)-N-hydroxyacrylamide], the IC50 in experiment [1] came to 1320 ± 25 nM; in experiment [2], 1180 ± 15 nM; in experiment [3], 40 ± 1 nM.

In the case of `Cc1ccc(Cn2cnc3ccc(/C=C/C(=O)NO)cc3c2=O)cc1` [Compound 9m, (E)-N-Hydroxy-3-(3-(4-methylbenzyl)-4-oxo-3,4-dihydroquinazolin-6-yl)acrylamide], the IC50 worked out at 1260 ± 26 nM in experiment [1] and 1380 ± 30 nM in experiment [2].

These data come from PMC7905942 (ACS Omega, 2021).
